Source: patent publication US5741671A, “Isolation cloning and expression of transmembrane water channel aquaporin 1(AQP1)” (The Johns Hopkins University, priority 1995, dated 1998)

Legend:
[1] = Stopped-flow osmotic water permeability of control liposomes; format: biochemical; settings: mercurial reagent 1 mM
Protocol: Purified AQP1 was stored overnight at 0° C. or frozen for several days at -80° C. prior to reconstitution. Reconstitution into proteoliposomes was carried out in a final volume of 1 ml containing 60-90 μg of purified AQP1 protein in chromatography buffer, 9 mg of bath-sonicated E. coli phospholipid, 1.25% (w/v) octyl glucoside, and 50 mM Tris-HCl (pH 7.5). The mixture was briefly blended on a vortex mixer and incubated for 20 minutes on ice. […] Protein and phospholipid were measured as described by Ambudkar & Maloney (J. Biol. Chem., 1986, 261:10079-10086).
Permeability measurements. Membrane permeability measurements (Pf) were measured by exposing AQP1 proteoliposomes or control liposomes to an osmotic gradient by rapid mixing with an equal volume of another solution containing buffer A plus sufficient sucrose to increase osmolality in the mixed solutions to a value 120% of that in the original solution. This was performed with a stopped-flow fluorometer (SF.17MV, Applied Photophysics, Leatherhead, U.K.) with a measured dead time of 0.7 ms. […] Extravesicular carboxyfluorescein fluorescence was completely quenched using anti-fluorescein antibody (Harris et al., 1990, Am. J. Physiol. 259:F366-F371). […]

control-injected oocytes = test: Xenopus oocyte osmotic swelling assay, control-injected oocytes; format: cell-based, Xenopus laevis; settings: no RNA injected, 0.3 mM HgCl2, 22° C.
Protocol: Expression of AQP1 in Xenopus oocytes. Oocytes were removed from female Xenopus laevis frogs and prepared as described by Dascal (CRC Crit. Rev. Biochem., 1987, 22:317-373). Oocytes were injected with 0.05 microliters of water (control) or the same volume of water containing 1-10 nanograms of AQP1 RNA. The oocytes were incubated for up to 96 hours at 18° C. in modified Barth's buffer (88 mM NaCl, 1 mM KCl, 0.8 mM MgSO4, 0.3 mM Ca(NO3)2, 0.4 mM CaCl2, 2.4 mm NaHCO3, 10 mM HEPES, pH=7.4, total osmolality=200 mOsm/kg) also containing antibiotics. The whole oocytes were then removed and total cellular protein was dissolved in 40 microliters of buffer containing 1% (w/v) SDS and analyzed by immunoblot (Towbin et al., 1979, Proc. Natl. Acad. Sci. USA 76:4350-4354).
A swelling assay was adapted from that of published work (Fischbarg et al., 1990, Proc. Natl. Acad. Sci. USA 87:3244-3247; Zhang et al., 1990, J. Biol. Chem. 265: 15375-15378). […] Swelling was monitored with a Nikon phase-contrast microscope equipped for videorecording. The longest (D1) and shortest (D2) diameters of the oocytes were measured at 15- to 30-second intervals. Oocyte volumes (V) at each time point were calculated relative to volume at the initial observation (Vo): […]

## [Cl][Hg][Cl] [HgCl2]
[1]
  effect on the Pf of control liposomes: Neither pCMBS nor HgCl2 had any effect
control-injected oocytes
  Pf (osmotic water permeability): 20.3 cm/s x 10^-4
